Assay results from ChEMBL document CHEMBL1131889, “Synthesis and acetylcholinesterase inhibitory activity of huperzine A-E2020 combined compound” (Bioorg Med Chem Lett, 1999).

biological target: T1, Acetylcholinesterase (Rattus norvegicus, UniProt P37136); assay: Inhibitory activity against Acetylcholinesterase (AChE) in rat brain hippocampal crude homogenate; type: tissue-based, Hippocampus
T1 sequence (P37136 whole entry): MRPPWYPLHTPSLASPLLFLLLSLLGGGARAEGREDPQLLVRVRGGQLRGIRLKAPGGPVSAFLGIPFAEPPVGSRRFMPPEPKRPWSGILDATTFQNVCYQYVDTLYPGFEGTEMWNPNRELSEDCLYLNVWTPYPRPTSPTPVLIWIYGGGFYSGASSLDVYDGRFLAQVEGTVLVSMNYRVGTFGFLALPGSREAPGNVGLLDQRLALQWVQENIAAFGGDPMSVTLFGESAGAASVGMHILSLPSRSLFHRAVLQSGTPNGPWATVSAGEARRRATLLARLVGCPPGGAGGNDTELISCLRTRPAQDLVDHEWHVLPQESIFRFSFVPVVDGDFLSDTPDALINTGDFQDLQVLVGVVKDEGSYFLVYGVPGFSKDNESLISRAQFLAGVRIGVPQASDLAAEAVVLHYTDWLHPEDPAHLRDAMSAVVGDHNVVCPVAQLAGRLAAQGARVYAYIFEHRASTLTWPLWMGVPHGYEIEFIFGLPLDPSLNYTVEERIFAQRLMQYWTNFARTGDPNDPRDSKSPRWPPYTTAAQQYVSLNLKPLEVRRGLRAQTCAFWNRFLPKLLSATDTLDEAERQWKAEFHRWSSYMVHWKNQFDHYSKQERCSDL

| SMILES | IC50 |
| --- | --- |
| COc1ccc2c(n1)CCC(OC)C2(C)NCC1CCN(Cc2ccccc2)CC1 (stereo not drawn) | > 177 µM |
| CC1(NCC2CCN(Cc3ccccc3)CC2)c2ccc(O)nc2CCC1O (stereo not drawn) | > 190 µM |
| COc1ccc2c(n1)CCC(OC)C2(C)NC(=O)C1CCN(Cc2ccccc2)CC1 (stereo not drawn) | 17.2 µM |
